For assay [1], the system named is AGSST (creeping bentgrass). The assay is described as follows: Pre-emergence herbicidal activity, cool season. It is filed as in vivo, Agrostis stolonifera. To be noted: GR80 = lowest tested rate (300, 100, 30, 10 g/ha) with 80% or greater inhibition; approx. 14 days after treating; 18/13° C. Put shortly: (§1)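 GR80 values derive from percent inhibition relative to untreated plants, read roughly 14 days after sowing and pre-emergence soil-surface treatment (compound in 50:50 acetone/water; rates typically 10, 30, 100, 300 g/ha). Warm-season weeds grew at 30/21° C day/night, cool-season ones at 18/13° C; an asterisk marks activity without reaching 80% at the highest rate.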

Assay [2] relates to DIGSA (large crabgrass). The assay is described as follows: Pre-emergence herbicidal activity, warm season. It is filed as in vivo, Digitaria sanguinalis. As to conditions: GR80 = lowest tested rate (300, 100, 30, 10 g/ha) with 80% or greater inhibition; approx. 14 days after treating; 30/21° C. Put shortly: (§2)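 Pre-emergence soil-surface spray; rates 300/100/30/10 g/ha; acetone:water 50:50 diluent. Warm-season species (PANMI, DIGSA) grown at 30/21 °C, cool-season species (ALOMY, POLCO) at 18/13 °C. Inhibition scored ~14 d after treatment versus untreated controls → GR80.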

Assay [3] deals with POLCO (wild buckwheat). The assay is described as follows: Pre-emergence herbicidal activity, cool season. Type of assay: in vivo, Polygonum convolvulus. As to conditions: lowest tested rate with 80% or greater inhibition; rates 300, 100, 30, 10 g/ha; about 14 days. Put shortly: as §2
The test system of assay [4] is STEME (common chickweed). Briefly: Pre-emergence herbicidal activity, cool season. Type of assay: in vivo, Stellaria media. To be noted: lowest tested rate with 80% or greater inhibition; rates 300, 100, 30, 10 g/ha; about 14 days. The procedure, abridged: as §1
The test system of assay [5] is ALOMY (blackgrass). Briefly: Pre-emergence herbicidal activity, cool season. It is filed as in vivo, Alopecurus myosuroides. To be noted: GR80 = lowest tested rate (300, 100, 30, 10 g/ha) with 80% or greater inhibition; approx. 14 days after treating; 18/13° C. The procedure, abridged: as §2
Assay [6] has as its system LOLMG (annual ryegrass). Briefly: Pre-emergence herbicidal activity, cool season. Type of assay: in vivo, Lolium multiflorum. As to conditions: GR80 = lowest tested rate (300, 100, 30, 10 g/ha) with 80% or greater inhibition; approx. 14 days after treating; 18/13° C. The method, then: (§3) Tables 5 to 8 summarize results of tests conducted as described below to determine the pre-emergence herbicidal activity, in the form of a GR80 value, of illustrative compounds of this invention. […] Compounds of the invention were typically applied at rates of 300, 100, 30, and 10 g/ha. Where herbicidal activity was evident but 80% inhibition was not achieved at the highest rate tested, an asterisk (*) is shown in the following tables.
(§4) The pre-emergence tests were conducted by the following procedure. Topsoil was sieved to pass through a 1.27 cm screen. Fertilizer was added to the topsoil and the mixture was then sterilized by heating. The topsoil mixture was placed in a pot and compacted to a depth of 1.0 to 1.25 cm from the top of the pot. Seeds of each of several monocotyledonous and dicotyledonous annual plant species were placed on top of the soil. Additional soil was subsequently placed over the seeds to level-fill the pot. A known amount of each test compound dissolved or suspended in an appropriate organic solvent was diluted with a 50:50 mix of acetone and water and applied to the surface of the soil. After treatment the plants were placed in a greenhouse where they received 0.64 cm of overhead irrigation. All subsequent watering consisted of a light overhead mist and/or subirrigation as needed for germination and growth. Tables 5 and 6 below relate to warm season plant species which were placed after pre-emergence treatment in a greenhouse with a 30/21° C. day/night temperature regime. Tables 7 and 8 below relates to cool season plant species placed after pre-emergence treatment in a greenhouse or growth chamber with an 18/13° C. day/night temperature regime.
(§5) Approximately 14 days after planting and treating, the plants were observed and herbicidal efficacy recorded as percent inhibition by comparison with untreated plants.
(§6) The plant species usually regarded as weeds which were utilized in the tests are identified in the tables below according to the following legend, in which “d” indicates a dicotyledonous species and “m” a monocotyledonous species. All monocotyledonous species included in the tests herein are grasses.

The test system of assay [7] is GALAP (catchweed bedstraw). The assay is described as follows: Pre-emergence herbicidal activity, cool season. Type of assay: in vivo, Galium aparine. To be noted: lowest tested rate with 80% or greater inhibition; rates 300, 100, 30, 10 g/ha; about 14 days. Put shortly: as §1
The subject of assay [8] is SETVI (green foxtail). The assay is described as follows: Pre-emergence herbicidal activity, cool season. It is filed as in vivo, Setaria viridis. To be noted: GR80 = lowest tested rate (300, 100, 30, 10 g/ha) with 80% or greater inhibition; approx. 14 days after treating; 18/13° C. Put shortly: as §1
In assay [9] the test system is SASKR (russian thistle). The assay is described as follows: Pre-emergence herbicidal activity, cool season. It is filed as in vivo, Salsola kali. As to conditions: lowest tested rate with 80% or greater inhibition; rates 300, 100, 30, 10 g/ha; about 14 days. Put shortly:
as §1

Assay [10] deals with PANMI (wild proso millet). Briefly: Pre-emergence herbicidal activity, warm season. Type of assay: in vivo, Panicum miliaceum. As to conditions: GR80 = lowest tested rate (300, 100, 30, 10 g/ha) with 80% or greater inhibition; approx. 14 days after treating; 30/21° C. Put shortly:
as §2

Assay [11] relates to LAMPU (purple deadnettle). Briefly: Pre-emergence herbicidal activity, cool season. Type of assay: in vivo, Lamium purpureum. As to conditions: lowest tested rate with 80% or greater inhibition; rates 300, 100, 30, 10 g/ha; about 14 days. The procedure, abridged:
as §1

The test system of assay [12] is VERPE (creeping speedwell). The assay is described as follows: Pre-emergence herbicidal activity, cool season. It is filed as in vivo, Veronica persicaria. As to conditions: lowest tested rate with 80% or greater inhibition; rates 300, 100, 30, 10 g/ha; about 14 days. Put shortly: as §1
The test system of assay [13] is AMARE (redroot pigweed). Briefly: Pre-emergence herbicidal activity, warm season. It is filed as in vivo, Amaranthus retroflexus. As to conditions: GR80 = lowest tested rate (300, 100, 30, 10 g/ha) with 80% or greater inhibition; approx. 14 days after treating; 30/21° C. The method, then:
as §3, §4, §5, §6

In assay [14] the test system is SINAR (wild mustard). Briefly: Pre-emergence herbicidal activity, cool season. To be noted: lowest tested rate with 80% or greater inhibition; rates 300, 100, 30, 10 g/ha; about 14 days. It is filed as in vivo, Sinapis arvensis. The procedure, abridged: as §1
The test system of assay [15] is BRAPP (broadleaf signalgrass). Briefly: Pre-emergence herbicidal activity, warm season. Type of assay: in vivo, Brachiaria platyphylla. As to conditions: GR80 = lowest tested rate (300, 100, 30, 10 g/ha) with 80% or greater inhibition; approx. 14 days after treating; 30/21° C. How it is done:
as §3, §4, §5, §6

The subject of assay [16] is ECHCG (barnyardgrass). The assay is described as follows: Pre-emergence herbicidal activity, warm season. Type of assay: in vivo, Echinochloa crus-galli. As to conditions: GR80 = lowest tested rate (300, 100, 30, 10 g/ha) with 80% or greater inhibition; approx. 14 days after treating; 30/21° C. The procedure, abridged: (§7)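 Seeds sown in sterilised fertilised topsoil received surface-applied compound in 50:50 acetone/water, typically at 300, 100, 30 and 10 g/ha, then greenhouse-grown at 30/21° C (warm-season species) or 18/13° C (cool-season species). Percent inhibition versus untreated plants was scored at about 14 days, giving GR80; an asterisk marks activity short of 80% at the top rate.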

The subject of assay [17] is SETFA (giant foxtail). Briefly: Pre-emergence herbicidal activity, warm season. It is filed as in vivo, Setaria faberi. To be noted: GR80 = lowest tested rate (300, 100, 30, 10 g/ha) with 80% or greater inhibition; approx. 14 days after treating; 30/21° C. The procedure, abridged: as §7
The subject of assay [18] is SORHA (johnsongrass (seedling)). The assay is described as follows: Pre-emergence herbicidal activity, warm season. It is filed as in vivo, Sorghum halepense. To be noted: GR80 = lowest tested rate (300, 100, 30, 10 g/ha) with 80% or greater inhibition; approx. 14 days after treating; 30/21° C. The procedure, abridged: as §7
Assay [19] concerns CHEAL (common lambsquarters). Briefly: Pre-emergence herbicidal activity, warm season. Type of assay: in vivo, Chenopodium album. As to conditions: GR80 = lowest tested rate (300, 100, 30, 10 g/ha) with 80% or greater inhibition; approx. 14 days after treating; 30/21° C. The procedure, abridged: as §1
In assay [20] the test system is ABUTH (velvetleaf). Briefly: Pre-emergence herbicidal activity, warm season. It is filed as in vivo, Abutilon theophrasti. To be noted: GR80 = lowest tested rate (300, 100, 30, 10 g/ha) with 80% or greater inhibition; approx. 14 days after treating; 30/21° C. How it is done: as §3, §4, §5, §6
In assay [21] the test system is SOLNI (black nightshade). The assay is described as follows: Pre-emergence herbicidal activity, warm season. Type of assay: in vivo, Solanum nigrum. As to conditions: GR80 = lowest tested rate (300, 100, 30, 10 g/ha) with 80% or greater inhibition; approx. 14 days after treating; 30/21° C. The procedure, abridged: as §1

On to `CCCN(CC)C(=O)n1cnc(S(=O)(=O)C(F)F)n1` [Example 28], for which the “Pre-emergence activity (GR80) AGSST” value in [1] is 30 g/ha. In addition, the “Pre-emergence activity (GR80) DIGSA” value in [2] is 300 g/ha. The “Pre-emergence activity GR80, POLCO” value in assay [3] is “[empty]”. In assay [4], the “Pre-emergence activity GR80, STEME” value amounted to 10 g/ha. The “Pre-emergence activity (GR80) ALOMY” value in assay [5] is 30 g/ha. In addition, in assay [6], the “Pre-emergence activity (GR80) LOLMG” value is listed as 300 g/ha. In addition, in [7], the “Pre-emergence activity GR80, GALAP” value is 30 g/ha. The “Pre-emergence activity (GR80) SETVI” value in assay [8] turned out to be 30 g/ha. For the same compound, the “Pre-emergence activity GR80, SASKR” value in assay [9] is recorded as 30 g/ha. Also, the “Pre-emergence activity (GR80) PANMI” value in [10] worked out at 300 g/ha. Further, in [11], the “Pre-emergence activity GR80, LAMPU” value amounted to 30 g/ha. Also, the “Pre-emergence activity GR80, VERPE” value in assay [12] is given as 10 g/ha. In assay [13], the “Pre-emergence activity (GR80) AMARE” value is reported as 300 g/ha. For the same compound, the “Pre-emergence activity GR80, SINAR” value in [14] was 10 g/ha. In addition, the “Pre-emergence activity (GR80) BRAPP” value in assay [15] is 300 g/ha.

Regarding `CCCN(CC)C(=O)n1cnc(S(=O)(=O)C(F)(F)Br)n1` [Example 39], the “Pre-emergence activity (GR80) AGSST” value in assay [1] is 30 g/ha. In addition, the “Pre-emergence activity GR80, POLCO” value in [3] came out at 100 g/ha. Further, the “Pre-emergence activity (GR80) ECHCG” value in assay [16] is given as 300 g/ha. Besides, in assay [4], the “Pre-emergence activity GR80, STEME” value worked out at 30 g/ha. The “Pre-emergence activity (GR80) ALOMY” value in [5] is recorded as 300 g/ha. Moreover, the “Pre-emergence activity (GR80) LOLMG” value in [6] amounted to 300 g/ha. The “Pre-emergence activity GR80, GALAP” value in assay [7] worked out at 100 g/ha. In addition, the “Pre-emergence activity (GR80) SETVI” value in assay [8] amounted to 100 g/ha. For the same compound, the “Pre-emergence activity GR80, SASKR” value in [9] worked out at 100 g/ha. For the same compound, the “Pre-emergence activity (GR80) PANMI” value in assay [10] came to 300 g/ha. Further, in assay [11], the “Pre-emergence activity GR80, LAMPU” value is reported as 30 g/ha. Besides, in [12], the “Pre-emergence activity GR80, VERPE” value stood at 10 g/ha. Also, the “Pre-emergence activity (GR80) SETFA” value in assay [17] came to 100 g/ha. Besides, the “Pre-emergence activity (GR80) SORHA” value in [18] amounted to 100 g/ha. The “Pre-emergence activity (GR80) AMARE” value in assay [13] came out at 300 g/ha. In addition, in assay [14], the “Pre-emergence activity GR80, SINAR” value is 30 g/ha. Further, the “Pre-emergence activity (GR80) CHEAL” value in [19] was 300 g/ha.

For the compound `CN(Cc1ccccc1)C(=O)n1cnc(S(=O)(=O)C(F)(F)Br)n1` [Example 44], the “Pre-emergence activity (GR80) ABUTH” value in [20] was found to be 300 g/ha. Besides, the “Pre-emergence activity GR80, POLCO” value in assay [3] was “[empty]”. The “Pre-emergence activity GR80, STEME” value in assay [4] is “[empty]”. For the same compound, in assay [7], the “Pre-emergence activity GR80, GALAP” value was “[empty]”. The “Pre-emergence activity GR80, SASKR” value in assay [9] is “[empty]”. For the same compound, in assay [21], the “Pre-emergence activity (GR80) SOLNI” value is given as 30 g/ha. In assay [10], the “Pre-emergence activity (GR80) PANMI” value is on record as 300 g/ha. In assay [11], the “Pre-emergence activity GR80, LAMPU” value was “[empty]”. Moreover, the “Pre-emergence activity GR80, VERPE” value in assay [12] was 100 g/ha. Also, the “Pre-emergence activity GR80, SINAR” value in [14] is “[empty]”.
